{
  "source": "patent US8642065B2",
  "about": "“Osteogenic promoting implants and methods of inducing bone growth” (DePuy Synthes Products, LLC, priority 2011, dated 2014)",
  "key": {"L929": {"tested_on": "L929", "test": "In vitro L929 cytotoxicity assay (CTG)", "assay_type": "cell-based", "conditions": "L929 cells; read-out: Cytotox (CTG) CC50", "text": "(§1) Samples from several classes of small molecule compounds including, corticosteroids, glucocorticoids, oxysterols, compounds that impact the HMG coA reductase pathway and compounds that upregulate intracellular cAMP were screened for osteoinductive potential with an alkaline phosphatase (ALP) assay in primary human mesenchymal stem cells (MSCs). Sample compounds were screened over a dose range in a multiwell plate format using DNA to normalize the ALP response as a function of cell number. These dose response curves allowed for the determination of an EC50 to measure relative potency of the osteogenic response between compounds. FIG. 1 is a representative dose response curve for two of the corticosteroid compounds tested, clobetasol propionate and dexamethasone. In addition to the functional analysis, certain identified compounds were run through an in vitro L929 cytotoxicity assay to determine a CC50."}, "[1]": {"tested_on": "primary human mesenchymal stem cells (MSCs)", "test": "Osteoinductive (OI) alkaline phosphatase (ALP) assay, dose response, ALP normalised to DNA", "assay_type": "cell-based", "text": "as §1"}, "MSCs [2]": {"tested_on": "MSCs", "test": "In vitro 3-D efficacy: ALP RNA expression in MSCs seeded on coated Scaffold I", "assay_type": "cell-based", "conditions": "compound precoated on Scaffold I, MSCs cultured three days, versus basal conditions", "method": "The osteoinductive potential of selected small molecule compounds were determined in vitro by seeding MSCs onto a three dimensional b-TCP polymer composite scaffold, Scaffold I, which had been coated with selected compounds prior to seeding. These cells were allowed to culture for a period of time after which they were assayed for alkaline phosphatase (ALP) RNA content, an early marker of osteogenic differentiation. FIG. 7 is a graphical illustration showing the amount of ALP RNA expression in the MSCs, expressed as a fold increase over basal conditions (standard culture conditions). In this example, dexamethasone (a control for the assay) was added to the culture media in solution whereas in all other cases the compounds were precoated on to Scaffold I followed by addition of the MSCs. The cells were then cultured for three days and assayed for their level of osteogenic response via ALP RNA expression."}, "[3]": {"test": "Excipient testing at variable pH levels: solubility", "assay_type": "physicochemical", "method": "The goal of these experiments was to increase the solubility of the compound such that increased doses could be added to material scaffolds. In a set of experiments, the solubility of clobetasol propionate and fluticasone propionate were evaluated at three distinct pH levels with a series of excipients. Phosphate buffered solutions were prepared at pH levels 3 (Low), and 7 (Medium), and a Tris buffered solution was prepared at pH level 9 (High). Solubility of the compound in the presence of a given excipient was measured at the individual pH levels as a fold increase over the solubility of the compound with no excipient present. Data regarding the solubility of clobetasol propionate in combination with the excipients is given below in Table 3. Data regarding the solubility of fluticasone propionate in combination with the excipients is given below in Table 4."}, "MSCs [4]": {"tested_on": "MSCs", "test": "Relative potency: ALP assay after short exposure times, then basal media to assay completion", "assay_type": "cell-based, human", "conditions": "for EC50: MSCs, then basal media", "method": "One part of this technology may involve coating an osteoconductive scaffold with an osteoinductive small molecule compound to thereby deliver the compound locally when the scaffold is implanted. Consequently, the optimal time and concentration profile required for the compound to remain at the site in order to influence an osteogenic outcome was determined. Initially, potency was determined by looking at exposure over 6 days. In order to better understand the optimal exposure profile, MSCs were treated over a series of dose ranges for exposure times starting at 1 hour out to 4 days, after which the compound treated media was removed and the cells were allowed to continue to assay completion under basal media conditions. This allowed for the determination of the relative potency of the compounds over short exposure periods and gave an indication of the release requirements that would be necessary to achieve the desired osteogenic outcome.\nFIG. 2 is a representative relative potency graph of a corticosteroid, fluticasone propionate, based on the results shown in Table 2."}, "15 mm radial defect": {"tested_on": "15 mm radial defect", "test": "In vivo study in rabbit radial defect model, radiographs", "conditions": "Scaffold I coated intraoperatively plus autogenic bone marrow, three weeks post op", "method": "An evaluation of two small molecule compounds, dexamethasone and 20S-hydroxycholesterol, was performed in the rabbit radial defect model. Scaffold I was coated with the compounds intraoperatively, combined with autogenic bone marrow, and implanted in a 15 mm radial defect. Radiographs were taken at 3 and 6 weeks post-operatively, after which the animals were sacrificed and explants analyzed by micro CT."}, "[5]": {"conditions": "primary human MSCs, exposure over 6 days, read-out: OI Assay (ALP) EC50"}},
  "note": "Read-outs that look alike come from different tables or passages of the source.",
  "data": [
    {"molecule": "CCC(=O)O[C@]1(C(=O)SCF)[C@H](C)C[C@H]2[C@@H]3C[C@H](F)C4=CC(=O)C=C[C@]4(C)[C@@]3(F)[C@@H](O)C[C@@]21C", "note": "[Fluticasone propionate]", "values": [
      {"measurement": "CC50", "setting": "L929", "result": "> 1000", "unit": "nM"},
      {"measurement": "EC50", "setting": "[1]; MSCs, 6 days exposure, read-out: EC50 6 days", "result": 0.0065, "unit": "nM"},
      {"measurement": "EC50", "setting": "[1]; [5]", "result": 0.0065, "unit": "nM"},
      {"measurement": "ALP RNA expression (osteogenic differentiation of MSCs)", "setting": "MSCs [2]", "result": "upregulated osteogenic differentiation of MSCs significantly"},
      {"measurement": "solubility, fold increase over no excipient", "setting": "[3]; excipient Captisol, pH 3 (Low), phosphate buffered", "result": 55.01, "unit": "fold"},
      {"measurement": "solubility, fold increase over no excipient", "setting": "[3]; excipient Captisol, pH 7 (Med), phosphate buffered", "result": 80.81, "unit": "fold"},
      {"measurement": "solubility, fold increase over no excipient", "setting": "[3]; excipient Captisol, pH 9 (High), Tris buffered", "result": 67.60, "unit": "fold"},
      {"measurement": "solubility, fold increase over no excipient", "setting": "[3]; excipient Cremophor_EL, pH 3 (Low), phosphate buffered", "result": 94.00, "unit": "fold"},
      {"measurement": "solubility, fold increase over no excipient", "setting": "[3]; excipient Cremophor_EL, pH 7 (Med), phosphate buffered", "result": 138.82, "unit": "fold"},
      {"measurement": "solubility, fold increase over no excipient", "setting": "[3]; excipient Cremophor_EL, pH 9 (High), Tris buffered", "result": 89.92, "unit": "fold"},
      {"measurement": "solubility, fold increase over no excipient", "setting": "[3]; excipient DMA, pH 3 (Low), phosphate buffered", "result": 6.67, "unit": "fold"},
      {"measurement": "solubility, fold increase over no excipient", "setting": "[3]; excipient DMA, pH 7 (Med), phosphate buffered", "result": 8.41, "unit": "fold"},
      {"measurement": "solubility, fold increase over no excipient", "setting": "[3]; excipient DMA, pH 9 (High), Tris buffered", "result": 7.07, "unit": "fold"},
      {"measurement": "solubility, fold increase over no excipient", "setting": "[3]; excipient DMSO, pH 3 (Low), phosphate buffered", "result": 1.79, "unit": "fold"},
      {"measurement": "solubility, fold increase over no excipient", "setting": "[3]; excipient DMSO, pH 7 (Med), phosphate buffered", "result": 1.96, "unit": "fold"},
      {"measurement": "solubility, fold increase over no excipient", "setting": "[3]; excipient DMSO, pH 9 (High), Tris buffered", "result": 1.84, "unit": "fold"},
      {"measurement": "solubility, fold increase over no excipient", "setting": "[3]; excipient Dimethyl_isosorbide, pH 3 (Low), phosphate buffered", "result": 4.14, "unit": "fold"},
      {"measurement": "solubility, fold increase over no excipient", "setting": "[3]; excipient Dimethyl_isosorbide, pH 7 (Med), phosphate buffered", "result": 5.78, "unit": "fold"},
      {"measurement": "solubility, fold increase over no excipient", "setting": "[3]; excipient Dimethyl_isosorbide, pH 9 (High), Tris buffered", "result": 5.01, "unit": "fold"},
      {"measurement": "solubility, fold increase over no excipient", "setting": "[3]; excipient Labrasol, pH 3 (Low), phosphate buffered", "result": 54.03, "unit": "fold"},
      {"measurement": "solubility, fold increase over no excipient", "setting": "[3]; excipient Labrasol, pH 7 (Med), phosphate buffered", "result": 85.96, "unit": "fold"},
      {"measurement": "solubility, fold increase over no excipient", "setting": "[3]; excipient Labrasol, pH 9 (High), Tris buffered", "result": 79.23, "unit": "fold"},
      {"measurement": "solubility, fold increase over no excipient", "setting": "[3]; excipient NMP, pH 3 (Low), phosphate buffered", "result": 6.39, "unit": "fold"},
      {"measurement": "solubility, fold increase over no excipient", "setting": "[3]; excipient NMP, pH 7 (Med), phosphate buffered", "result": 9.02, "unit": "fold"},
      {"measurement": "solubility, fold increase over no excipient", "setting": "[3]; excipient NMP, pH 9 (High), Tris buffered", "result": 7.96, "unit": "fold"},
      {"measurement": "solubility, fold increase over no excipient", "setting": "[3]; excipient PEG400, pH 3 (Low), phosphate buffered", "result": 3.22, "unit": "fold"},
      {"measurement": "solubility, fold increase over no excipient", "setting": "[3]; excipient PEG400, pH 7 (Med), phosphate buffered", "result": 4.32, "unit": "fold"},
      {"measurement": "solubility, fold increase over no excipient", "setting": "[3]; excipient PEG400, pH 9 (High), Tris buffered", "result": 3.55, "unit": "fold"},
      {"measurement": "solubility, fold increase over no excipient", "setting": "[3]; excipient PVP, pH 3 (Low), phosphate buffered", "result": 2.21, "unit": "fold"},
      {"measurement": "solubility, fold increase over no excipient", "setting": "[3]; excipient PVP, pH 7 (Med), phosphate buffered", "result": 3.98, "unit": "fold"},
      {"measurement": "solubility, fold increase over no excipient", "setting": "[3]; excipient PVP, pH 9 (High), Tris buffered", "result": 2.73, "unit": "fold"},
      {"measurement": "solubility, fold increase over no excipient", "setting": "[3]; excipient Propylene_glycol, pH 3 (Low), phosphate buffered", "result": 5.63, "unit": "fold"},
      {"measurement": "solubility, fold increase over no excipient", "setting": "[3]; excipient Propylene_glycol, pH 7 (Med), phosphate buffered", "result": 7.89, "unit": "fold"},
      {"measurement": "solubility, fold increase over no excipient", "setting": "[3]; excipient Propylene_glycol, pH 9 (High), Tris buffered", "result": 5.90, "unit": "fold"},
      {"measurement": "solubility, fold increase over no excipient", "setting": "[3]; excipient Solutol_HS_15, pH 3 (Low), phosphate buffered", "result": 3.82, "unit": "fold"},
      {"measurement": "solubility, fold increase over no excipient", "setting": "[3]; excipient Solutol_HS_15, pH 7 (Med), phosphate buffered", "result": 5.00, "unit": "fold"},
      {"measurement": "solubility, fold increase over no excipient", "setting": "[3]; excipient Solutol_HS_15, pH 9 (High), Tris buffered", "result": 4.47, "unit": "fold"},
      {"measurement": "solubility, fold increase over no excipient", "setting": "[3]; excipient Tweens, pH 3 (Low), phosphate buffered", "result": 194.37, "unit": "fold"},
      {"measurement": "solubility, fold increase over no excipient", "setting": "[3]; excipient Tweens, pH 7 (Med), phosphate buffered", "result": 272.98, "unit": "fold"},
      {"measurement": "solubility, fold increase over no excipient", "setting": "[3]; excipient Tweens, pH 9 (High), Tris buffered", "result": 231.06, "unit": "fold"},
      {"measurement": "EC50", "setting": "MSCs [4]; 1 hr exposure, read-out: EC50 1 hr.", "result": 0.194, "unit": "nM"},
      {"measurement": "EC50", "setting": "MSCs [4]; 4 hr exposure, read-out: EC50 4 hr.", "result": 0.0422, "unit": "nM"},
      {"measurement": "EC50", "setting": "MSCs [4]; 24 hr exposure, read-out: EC50 24 hr.", "result": 0.0676, "unit": "nM"},
      {"measurement": "EC50", "setting": "MSCs [4]; 72 hr exposure, read-out: EC50 72 hr", "result": 0.0042, "unit": "nM"},
      {"measurement": "Max Osteogenic Response", "setting": "MSCs [4]; time range to reach the full response of the ALP assay control (dexamethasone at 10 nM for 6 days)", "result": "48 to 72", "unit": "h"}
    ]},
    {"molecule": "CC(C)CCC[C@](C)(O)[C@H]1CC[C@H]2[C@@H]3CC=C4C[C@@H](O)CC[C@]4(C)[C@H]3CC[C@@]21C", "note": "[20a-hydroxy-cholesterol]", "values": [
      {"measurement": "CC50", "setting": "L929", "result": "> 12000", "unit": "nM"},
      {"measurement": "radiographs, periosteal response", "setting": "15 mm radial defect", "result": "appeared to have an enhanced periosteal response"},
      {"measurement": "EC50", "setting": "[1]; [5]", "result": "> 12000", "unit": "nM"}
    ]}
  ]
}
